This experiment addresses T1, Breast Cancer Resistance Protein (BCRP) (Homo sapiens, UniProt Q9UNQ0).
T1 sequence (Q9UNQ0 1-655): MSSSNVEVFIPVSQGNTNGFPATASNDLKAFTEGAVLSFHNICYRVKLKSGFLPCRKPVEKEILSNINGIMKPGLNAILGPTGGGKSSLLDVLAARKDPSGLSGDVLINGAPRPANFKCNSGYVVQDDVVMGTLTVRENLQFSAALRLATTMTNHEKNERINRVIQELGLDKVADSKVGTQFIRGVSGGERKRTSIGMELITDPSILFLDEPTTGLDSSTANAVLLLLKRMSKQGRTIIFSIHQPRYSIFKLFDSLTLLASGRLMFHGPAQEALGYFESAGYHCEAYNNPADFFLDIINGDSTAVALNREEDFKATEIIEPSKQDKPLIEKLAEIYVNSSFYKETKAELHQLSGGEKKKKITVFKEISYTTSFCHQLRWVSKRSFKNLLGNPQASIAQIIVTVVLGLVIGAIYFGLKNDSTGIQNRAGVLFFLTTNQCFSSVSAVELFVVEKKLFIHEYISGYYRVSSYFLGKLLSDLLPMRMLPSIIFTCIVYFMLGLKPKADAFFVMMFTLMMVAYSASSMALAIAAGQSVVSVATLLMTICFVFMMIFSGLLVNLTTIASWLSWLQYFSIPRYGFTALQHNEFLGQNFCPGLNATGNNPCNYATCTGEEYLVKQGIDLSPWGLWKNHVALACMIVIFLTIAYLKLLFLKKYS
Description: inhibition of [3H]-MTX efflux from MDCKII-BCRP transfected cells and SV40-HCEC. The class given is cell-based.

`COc1ccc2c3c([nH]c2c1)[C@H](C=C(C)C)N1C(=O)[C@@H]2CCCN2C(=O)[C@@H]1C3` [FTC, Fumetremorgin C] yielded a concentration for half-maximal inhibition (IC50) of about 10 µM.

One may read the IC50 as the concentration at which inhibition is half-maximal. Low values mean greater potency, high ones weaker potency.

Values taken from publication PMC4406241 (Current eye research, 2009).
